The numbers were not newly measured in US20250107560A1, “CHRONOBIOLOGICAL FOOD FOR INFANTS AND METHOD FOR PRODUCING SAME” (priority 2022, published 2025), which cites them from elsewhere.

For data set [1], the target named is carrier albumin (Homo sapiens, UniProt P02768). As to conditions: compared with D-tryptophan.
The conditions of data set [2]: unlike D-tryptophan.

Chain of carrier albumin (P02768 25-609): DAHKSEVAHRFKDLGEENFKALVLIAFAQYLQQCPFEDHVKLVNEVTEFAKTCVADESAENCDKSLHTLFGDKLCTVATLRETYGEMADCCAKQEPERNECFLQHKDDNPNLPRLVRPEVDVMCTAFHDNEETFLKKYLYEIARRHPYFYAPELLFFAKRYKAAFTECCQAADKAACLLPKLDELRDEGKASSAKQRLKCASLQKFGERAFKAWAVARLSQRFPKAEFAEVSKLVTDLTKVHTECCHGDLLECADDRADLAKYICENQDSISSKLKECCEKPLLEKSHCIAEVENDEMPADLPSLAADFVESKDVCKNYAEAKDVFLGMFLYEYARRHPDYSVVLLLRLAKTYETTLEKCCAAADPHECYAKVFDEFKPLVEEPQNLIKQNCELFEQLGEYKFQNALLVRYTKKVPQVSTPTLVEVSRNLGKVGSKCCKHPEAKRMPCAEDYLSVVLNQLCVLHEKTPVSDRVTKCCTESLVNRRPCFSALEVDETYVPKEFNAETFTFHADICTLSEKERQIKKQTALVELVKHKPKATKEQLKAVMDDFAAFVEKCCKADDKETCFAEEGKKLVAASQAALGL

Regarding `N[C@@H](Cc1c[nH]c2ccccc12)C(=O)O` [L-tryptophan], the “binding to the carrier albumin, relative to D-tryptophan” value in data set [1] is 100 times. Further, the toxicity entry in data set [2] was “non-toxic”.
As to `COc1ccc2[nH]cc(CCNC(C)=O)c2c1` [Melatonin, melatonin], the biological half-life (in vivo) is 30-45 minutes. Moreover, the “excreted in the urine as 6-sulfatoxymelatonin” value (metabolized in the liver) is “approx. 95%”.
